The values that follow come from patent publication US12590118B2, “Salt and crystal form of steroid derivative regulator” (Shanghai Hansoh Biomedical Co., Ltd., priority 2019, dated 2026).

One experiment deals with CD-1 mice. Briefly: PTZ-induced epilepsy model in mice. In kind it is in vivo. To be noted: 3 mpk p.o., PTZ 120 mg/kg s.c., 30 min observation. As for the experimental part:
The PTZ-induced epilepsy model in CD-1 mice was established, and the antiepileptic effect of the compounds of Example 2, Example 40, Example 41 and Example 52 was evaluated using this model.
50 male CD-1 mice were purchased from Beijing Vital River Laboratory Animal Technology Co. Ltd. The test animals were adapted at the animal room in the third building of Shanghai ChemPartner Co., Ltd for 7 days before the experiment. The average body weight of the animals on the test day was 32.2±0.2 grams. Feeding environment: 5 animals/cage, room temperature 23±2° C., 12/12 hours of light and dark cycle, free access to food and water.
The mice were randomly grouped for the experiment on the test day.
Compounds of Example 2, Example 40, Example 41 and Example 52 (prepared by the applicant). The test compounds were stored in a refrigerator at 4° C.
4.2.3 Test Equipments • 1 ml sterile disposable syringe with needle (purchased from Zhejiang Kangdelai Medical Devices Co., Ltd.) • Pipette: Eppendorf Research Plus (100-1000 μL) • Vortex mixer: Kylin-Bell Vortex 5 • Ultrasonic instrument: JL-360 ultrasonic cleaner • Balance: METTLER TOLEDO XS204 precision balance • Balance: METTLER TOLEDO XS6002S electronic balance • Plexiglass box: 25 cm length*15 cm width*15 cm height with one opaque side wall, custom made by Suzhou Fengshi Laboratory Animal Equipment Co., Ltd • 3-channel timer: Oregon/Model NO. WB-388. 4.2.4 Test Animal Grouping • 1) Vehicle/PTZ: 0.5% CMC-Na+1% Tween-80 (10 ml/kg, p.o.), administered 0.5 hr before the PTZ administration; PTZ ([…], s.c.), administered before the experiment; • 2) 3 mg/kg of the compounds of Examples/PTZ: the compounds of Example 2, Example 40, Example 41 and Example 52 (3 mg/kg, 10 ml/kg, p.o.), administered 0.5 hr before the PTZ administration; PTZ ([…], s.c.), administered before the experiment. 4.3 Experimental Procedures 4.3.1 Solvent Formulation • 1) 0.5% CMC-Na+1% Tween-80 (administration volume: 10 mL/kg):
1 g of sodium carboxymethyl cellulose was precisely weighed and added to a 250 mL solvent bottle, then 150 mL of double-distilled water was added. The mixture was stirred at room temperature for 4 hours with a magnetic stirrer to obtain a uniform and clear solution. 2 mL of Tween-80 was slowly added, and the mixture was stirred at room temperature for 3 hours to obtain a uniform and clear solution. The solution was slowly transferred to a 200 mL volumetric flask, and double distilled water was added to the constant volume of 200 mL. The solution was transferred to a 250 mL solvent bottle, and stirred for 1 hour with a magnetic stirrer to obtain a uniform and clear solution. • 2) 30% hydroxypropyl-p-cyclodextrin:
248 mg of PTZ was precisely weighed and added to a 40 mL brown flask, then 20.667 mL of physiological saline was added. The mixture was mixed by vortex for 2 minutes, and treated by ultrasound at room temperature for 2 minutes to obtain a uniform and clear solution (concentration: 12 mg/mL). • 2) 0.3 mg/mL of the compounds of Example 5 or Example 23 (dose: 3 mg/kg; administration volume: 10 mL/kg): […]
4.4 Adaptation to the Environment
The mice were randomly grouped, marked and weighed; 10 mice per group. The test compound was administered orally at an administration volume of 10 mL/kg 30-60 minutes before the PTZ administration.
PTZ (120 mg/kg) was administrated subcutaneously before the experiment observation, and this time point was recorded as the observation start point; after the administration of PTZ, the animal was immediately placed in the observation box and observed for 30 minutes, and the followings were recorded: a) the incubation period of the first clonic seizure, b) the incubation period of the first generalized tonic seizure, c) the number of clonic seizures, d) the number of generalized tonic seizures, e) the time when the animal died.
All measurement data were expressed as Mean±SEM, and analysed with Prism 6.0 statistical software.

The next experiment concerns ICR mice. Description: Forced swimming model in mice. The class given is in vivo. Conditions: for Mean (immobility, %): floating time/240 s; for Mean (immobility, s): latter four minutes of 6 min swim. The essentials:
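Male ICR mice (25-35 g), 12 per group, dosed intragastrically at brain Tmax with 10 mg/kg or 5 mg/kg p.o. in 0.5% CMC-Na + 1% Tween 80. Forced swim 0.5-1 h post-dose for 6 min in 25-26° C. water, 18 cm deep. Immobility over last 4 min, given as floating time percentage of 240 s.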

In experiment [1] the target is T1, human GABAA receptor α1, β2 and γ2 subunit (HEK293T cell line) (Homo sapiens, UniProt P14867+P47870).
T1 construct: expressed in transfected cells
T1 sequence (P14867 28-456): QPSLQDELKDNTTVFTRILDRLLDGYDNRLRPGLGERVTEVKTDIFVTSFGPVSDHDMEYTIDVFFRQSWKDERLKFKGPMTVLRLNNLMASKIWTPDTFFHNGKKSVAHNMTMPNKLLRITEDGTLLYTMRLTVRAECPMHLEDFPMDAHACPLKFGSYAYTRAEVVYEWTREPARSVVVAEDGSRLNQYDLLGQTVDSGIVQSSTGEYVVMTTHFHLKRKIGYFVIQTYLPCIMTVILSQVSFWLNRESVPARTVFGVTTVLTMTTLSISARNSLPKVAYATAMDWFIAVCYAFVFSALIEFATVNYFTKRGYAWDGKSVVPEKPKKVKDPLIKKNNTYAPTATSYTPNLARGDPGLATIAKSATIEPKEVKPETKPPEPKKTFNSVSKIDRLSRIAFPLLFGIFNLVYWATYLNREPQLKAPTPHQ
T1 sequence (P47870 25-512 limits assumed): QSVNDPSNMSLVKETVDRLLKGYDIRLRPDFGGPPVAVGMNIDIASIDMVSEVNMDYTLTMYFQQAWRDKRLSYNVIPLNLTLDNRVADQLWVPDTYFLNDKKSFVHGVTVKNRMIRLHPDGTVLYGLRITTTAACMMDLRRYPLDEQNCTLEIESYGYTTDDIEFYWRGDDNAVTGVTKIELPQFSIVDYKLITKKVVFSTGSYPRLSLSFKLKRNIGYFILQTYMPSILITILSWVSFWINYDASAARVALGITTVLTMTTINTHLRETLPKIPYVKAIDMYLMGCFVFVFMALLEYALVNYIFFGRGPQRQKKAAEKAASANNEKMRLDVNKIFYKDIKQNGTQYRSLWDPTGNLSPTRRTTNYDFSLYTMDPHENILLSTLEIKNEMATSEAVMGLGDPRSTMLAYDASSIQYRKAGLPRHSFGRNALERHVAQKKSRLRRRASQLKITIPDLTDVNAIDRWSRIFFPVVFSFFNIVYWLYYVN
T1 sequence (P18507 40-475 partner): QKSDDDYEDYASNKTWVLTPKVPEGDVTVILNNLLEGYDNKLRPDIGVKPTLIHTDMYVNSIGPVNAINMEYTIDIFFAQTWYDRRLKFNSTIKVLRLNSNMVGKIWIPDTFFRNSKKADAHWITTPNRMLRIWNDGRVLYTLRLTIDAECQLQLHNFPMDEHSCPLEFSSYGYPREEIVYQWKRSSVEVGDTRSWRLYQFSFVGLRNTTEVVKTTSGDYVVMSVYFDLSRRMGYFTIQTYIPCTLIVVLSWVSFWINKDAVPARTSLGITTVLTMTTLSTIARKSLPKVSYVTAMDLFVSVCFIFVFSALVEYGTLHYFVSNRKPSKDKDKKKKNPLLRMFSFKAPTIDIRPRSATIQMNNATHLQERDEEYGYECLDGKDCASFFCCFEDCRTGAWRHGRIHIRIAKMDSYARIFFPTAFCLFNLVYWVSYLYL
Description: Positive regulatory effect on GABAA receptor, manual patch clamp. The class given is cell-based. Conditions: whole-cell current, 1 μM GABA. As for the experimental part:
The objective of this test example is to determine the positive regulatory effect of the compound on GABAA receptor by the electrophysiological manual patch clamp method.
Manual patch clamp system HEKA EPC10 USB signal amplifier and digital conversion system (purchased from HEKA Electronics, Germany), centrifuge (Eppendorf, etc.), carbon dioxide incubator (purchased from Thermo, etc.), biological safety cabinet (Thermo, etc.), pipette (purchased from Eppendorf, etc.).
The cells were grown in a culture dish with DMEM medium (purchased from Invitrogen), and cultured in an incubator at 37° C. and 5% CO2. Before the electrophysiological experiment, the cells were transferred to a round glass slide placed in the culture dish, and grown in the same culture medium and under the same culture condition as above. The density of cells on each round glass slide should meet the requirement that most cells were independent and individual.
Each test compound was diluted in gradient with DMSO to obtain a stock solution, which was then diluted with extracellular fluid by 1,000-fold to obtain the final test concentration. The final concentration of DMSO in the compound solution with each concentration was 0.1%. The experiment used the manual patch clamp system HEKA EPC10 USB signal amplifier and digital conversion system for whole cell current recording. The round glass slide with HEK293T GABAA cells grown on the surface was taken out of the culture dish, and placed in the electrophysiological recording tank under the inverted microscope. The recording tank was continuously perfused with extracellular fluid. During the experiment, the whole-cell current recording technology was used to record the chloride current of the GABAA channel. 1 μM GABA was used to activate the chloride current of the GABAA channel of each cell as an initial control. 1 μM GABA acted on the cell through the drug perfusion system to induce the chloride current of the GABAA channel, the action time was about 3 to 5 seconds, and the current value was used as the initial control value. The test concentration of compound was perfused and incubated for 2 to 5 minutes. […] GABA solution (mixed with the test concentration of compound) was given to the cells to observe the enhancement effect of the test compound on the current induced by 1 μM GABA. When the cell state was stable, the test compound acted on the same cell from low to high concentration to record the enhancement effect of the induced current.
The experimental data was analyzed by HEKA Patchmaster, Microsoft Excel and the data analysis software provided by Graphpad Prism.
(In general: In patch-clamp work, channel activity is measured electrically.)

A further experiment has as its target GABA-A receptor. Description: 35S-TBPS binding assay (GABAA receptor binding ability assay). The arrangement: species or system Sprague-Dawley rat. Conditions: rat cerebral cortex cell membrane, 5 μM GABA, 2 nM 35S-TBPS; read-out: IC50 on inhibiting the TBPS binding activity, 35S-TBPS bindng assay. The method, boiled down: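 Male Sprague-Dawley rat cerebral cortex membranes in PBS, preincubated with compound (1% DMSO, 8-point 3-fold series) 5 min at 25° C, then GABA 5 μM final 5 min, then 2 nM 35S-TBPS for 20 h at 4° C. Bound radioactivity filtered on PEI-treated GF/C and counted. % inhibition relative to DMSO and 10 μM P026-2 controls; IC50 from 4-parameter fit.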

pEC50, pIC50: −log10 of the molar value.

In general, pEC50 refers to the negative decadic logarithm of the EC50, by convention in mol/L. The low end stands for a high EC50, the high end for a low EC50. Turning to `Cc1nnn(CC(=O)[C@H]2C[C@@H](C3CC3)[C@H]3[C@@H]4CC[C@@H]5C[C@](C)(O)CC[C@@H]5[C@H]4CC[C@@]32C)n1` [Example 52, 1-((3R,5R,8R,9R,10S,13S,14S,15S,17S)-15-Cyclopropyl-3-hydroxy-3,13-dimethylhexadecahydro-1H-cyclopenta[a]phenanthren-17-yl)-2-(5-methyl-2H-tetrazol-2-yl)ethan-1-one], in the experiment on CD-1 mice, the “Incubation period of the clonic seizure (sec) Mean ± SEM” value was 635.4 ± 149.9 s, the “Incubation period of the generalized tonic seizure (sec) Mean” value turned out to be 1506.8 ± 149.8 s, the “Mortality rate (%)” value was 30% and the “Number of clonic seizures Mean” value was 1.8 ± 0.3. For the same compound, in the experiment on CD-1 mice, the “Number of generalized tonic seizures Mean” value came to 0.3 ± 0.2 and the “Time when the animal died (sec) Mean” value turned out to be 1618.1 ± 121.3 s. In the experiment on ICR mice (dose 5 mpk p.o.), the “Mean (immobility, %)” value amounted to 38.00% and the “Mean (immobility, s)” value amounted to 91.21 s. The same compound gave a pEC50 in experiment [1] of 6.82.
As a reminder, the pIC50 is −log10 of the IC50, conventionally taken in molar units. Take `C[C@@H]1C[C@H](C(=O)Cn2cc(C#N)cn2)[C@@]2(C)CC[C@H]3[C@@H](CC[C@@H]4C[C@](C)(O)CC[C@@H]43)[C@H]12` [Example 9, 1-(2-((3R,5R,8R,9R,10S,13S,14S,15R)-3-Hydroxy-3,13,15-trimethylhexadecahydro-1H-cyclopenta[a]phenanthren-17-yl)-2-oxoethyl)-1H-pyrazole-4-carbonitrile]: in the experiment on ICR mice (dose 5 mpk p.o.), the “Mean (immobility, %)” value came out at 57.60% and the “Mean (immobility, s)” value is 138.22 s. For the same compound, the pEC50 in experiment [1] was 7.22. The negative-log IC50 (pIC50) at GABA-A receptor is 8.34.
For the compound `C[C@@H]1C[C@H](C(=O)Cn2nccn2)[C@@]2(C)CC[C@H]3[C@@H](CC[C@@H]4C[C@](C)(O)CC[C@@H]43)[C@H]12` [Example 41, 1-((3R,5R,8R,9R,10S,13S,14S,15R,17S)-3-Hydroxy-3,13,15-trimethylhexadecahydro-1H-cyclopenta[a]phenanthren-17-yl)-2-(2H-1,2,3-triazol-2-yl)ethan-1-one], in the experiment on CD-1 mice, the “Incubation period of the clonic seizure (sec) Mean ± SEM” value stood at 841.4 ± 179.8 s, the “Incubation period of the generalized tonic seizure (sec) Mean” value was found to be 1497.4 ± 124.3 s, the “Mortality rate (%)” value turned out to be 40% and the “Number of clonic seizures Mean” value was 1.9 ± 0.4. Besides, in the experiment on CD-1 mice, the “Number of generalized tonic seizures Mean” value was found to be 0.5 ± 0.2 and the “Time when the animal died (sec) Mean” value is 1573.1 ± 117.9 s. For the same compound, in the experiment on ICR mice (dose 10 mpk p.o.), the “Mean (immobility, %)” value worked out at 35.75% and the “Mean (immobility, s)” value came out at 85.8 s. In addition, in the experiment with ICR mice (forced swimming, ICR mice), the “immobility time during the latter four minutes compared with that of the model group” value is “very significantly different”. Besides, the pEC50 in experiment [1] is 6.89.
As for `C[C@@H]1C[C@H](C(=O)Cn2nc(C#N)cc2C#N)[C@@]2(C)CC[C@H]3[C@@H](CC[C@@H]4C[C@](C)(O)CC[C@@H]43)[C@H]12` [Example 89, 1-(2-((3R,5R,8R,9R,10S,13S,14S,15R,17S)-3-Hydroxy-3,13,15-trimethylhexadecahydro-1H-cyclopenta[a]phenanthren-17-yl)-2-oxoethyl)-1H-pyrazole-3,5-dicarbonitrile], the pEC50 in experiment [1] is 7.37. Besides, at GABA-A receptor, the pIC50 is 8.37.
